According to patent US20060079550A1, “Amino acid derivatives useful for the treatment of alzheimer's disease” (priority 2001, published 2006):

biological target: aspartyl proteases, in particular, beta-secretase; test: Ki of the compounds listed in Tables 1 and 2 (no method described); assay type: biochemical; conditions: not given

| SMILES | Ki [µM] |
| --- | --- |
| CC(C)CN([C@@H](CCCCNC(=O)OCC1c2ccccc2-c2ccccc21)C(=O)O)S(=O)(=O)c1ccc(C(C)(C)C)cc1 [Compound No. 10, Nα-isobutyl-Nα-(4-tert-butylbenzenesulfonyl)-Nε-(9-fluorenylmethoxycarbonyl)-L-lysine] | 0.257 |

same assay, conditions: Table 1, compounds of formula Ia, W is -(CH2)n-

| SMILES | Ki [µM] |
| --- | --- |
| CC(C)CN(C(CCCCNC(=O)OCC1c2ccccc2-c2ccccc21)C(=O)O)S(=O)(=O)c1ccc(Cl)cc1 (racemic) [Compound No. 1, Nα-isobutyl-Nα-(4-chlorobenzenesulfonyl)-Nε-(9-fluorenylmethoxycarbonyl)-DL-lysine] | 0.0205 |
| Cc1ccc(S(=O)(=O)N(CC(C)C)C(CCCCNC(=O)OCC2c3ccccc3-c3ccccc32)C(=O)O)cc1 (racemic) [Compound No. 2, Nα-isobutyl-Nα-(4-methylbenzenesulfonyl)-Nε-(9-fluorenylmethoxycarbonyl)-DL-lysine] | 0.005 |
| CC(C)CN(C(CCCCNC(=O)OCC1c2ccccc2-c2ccccc21)C(=O)O)S(=O)(=O)c1ccc(F)cc1 (racemic) [Compound No. 3, Nα-isobutyl-Nα-(4-fluorobenzenesulfonyl)-Nε-(9-fluorenylmethoxycarbonyl)-DL-lysine] | 0.0174 |
| Cc1ccc(S(=O)(=O)N(CC(C)C)C(CCCNC(=O)OCC2c3ccccc3-c3ccccc32)C(=O)O)cc1 (racemic) [Compound No. 6, Nα-isobutyl-Nα-(4-methylbenzenesulfonyl)-Nδ-(9-fluorenylmethoxycarbonyl)-DL-ornithine] | 0.18 |
| CC(C)CN(C(CCCCNC(=O)OCc1ccccc1)C(=O)O)S(=O)(=O)c1ccc(I)cc1 (racemic) [Compound No. 48, Nα-isobutyl-Nα-(4-iodobenzenesulfonyl)-Nε-benzyloxycarbonyl-DL-lysine] | > 0.1 |
| Cc1ccc(S(=O)(=O)N(CC(C)C)C(CCCCNC(=S)CCc2ccccc2)C(=O)O)cc1 (racemic) [Compound No. 153, Nα-isobutyl-Nα-(4-methylbenzenesulfonyl)-Nε-dihydrothiocinnamoyi-DL-lysine] | 0.151 |
| Cc1ccc(S(=O)(=O)N(CC(C)C)C(CCCCN(CC(C)C)C(=O)CCc2ccccc2)C(=O)O)cc1 (racemic) [Compound No. 159, Nα,Nε-diisobutyl-Nα-(4-methylbenzenesulfonyl)-Nε-(3-phenylpropanoyl)-DL-lysine] | > 0.3 |
| CC(C)CN([C@@H](CCCCNC(=O)OCC1c2ccccc2-c2ccccc21)C(=O)O)S(=O)(=O)c1ccc(Br)cc1 [Compound No. 4, Nα-isobutyl-Nα-(4-bromobenzenesulfonyl)-Nε-(9-fluorenylmethoxycarbonyl)-L-lysine] | 0.0114 |
| COc1ccc(S(=O)(=O)N(CC(C)C)[C@@H](CCCCNC(=O)OCC2c3ccccc3-c3ccccc32)C(=O)O)cc1 [Compound No. 7] | 0.0106 |
| CC(C)CN([C@@H](CCCCNC(=O)OCC1c2ccccc2-c2ccccc21)C(=O)O)S(=O)(=O)c1cccc2ccccc12 [Compound No. 8, Nα-isobutyl-Nα-(1-naphthalenesulfonyl)-Nε-(9-fluorenylmethoxycarbonyl)-L-lysine] | 0.0549 |
| O=C(N[C@@H](CCNS(=O)(=O)c1ccc(Br)cc1)C(=O)O)OCC1c2ccccc2-c2ccccc21 [Compound No. 14, (S)-2-(9-fluorenylmethoxycarbonylamino)-4-(4-bromobenzenesulfonylamino)-butanoic Acid] | 49 |
| COC(=O)[C@H](CCCCNS(=O)(=O)c1ccc(Br)cc1)NC(=O)OCC1c2ccccc2-c2ccccc21 [Compound No. 15, Nα-(9-fluorenylmethoxycarbonyl)-Nε-(4-bromobenzenesulfonyl)-L-lysine Methyl Ester] | 47 |
| O=C(N[C@@H](CCCCNS(=O)(=O)c1ccc(Br)cc1)C(=O)O)OCC1c2ccccc2-c2ccccc21 [Compound No. 16, Nε-(4-bromobenzenesulfonyl)-Nα-(9-fluorenylmethoxycarbonyl)-L-lysine] | 13 |
| O=C(O)[C@H](CCCCNS(=O)(=O)c1ccc(Br)cc1)NS(=O)(=O)c1ccc(Br)cc1 [Compound No. 17, Nα,Nε-di-(4-bromobenzenesulfonyl)-L-lysine] | 7.7 |
| O=C(N[C@@H](CNS(=O)(=O)c1ccc(Br)cc1)C(=O)O)OCC1c2ccccc2-c2ccccc21 [Compound No. 18, (S)-2-(9-fluorenylmethoxycarbonylamino)-3-(4-bromobenzenesulfonylamino)-propanoic Acid] | 75 |
| NC(=O)C(CCCCNS(=O)(=O)c1ccc(Br)cc1)NC(=O)OCC1c2ccccc2-c2ccccc21 [Compound No. 20, (2R,2S)-(9-fluorenylmethoxycarbonylamino)-6-(4-bromobenzenesulfonylamino)-1-hexanamide] | 23 |
| CC(C)CN(CCCC[C@H](NC(=O)OCC1c2ccccc2-c2ccccc21)C(=O)O)S(=O)(=O)c1ccc(Br)cc1 [Compound No. 21, Nα-(9-fluorenylmethoxycarbonyl)-Nε-isobutyl-Nε-(4-bromobenzenesulfonyl)-L-lysine] | 2 |
| O=C(N[C@H](CO)CCCCNS(=O)(=O)c1ccc(Br)cc1)OCC1c2ccccc2-c2ccccc21 [Compound No. 22, (2S)-(9-fluorenylmethoxycarbonylamino)-6-(4-bromobenzenesulfonylamino)-1-hexanol] | > 6 |
| O=C(N[C@@H](CCCCNS(=O)(=O)c1ccc(Br)cc1)C(=O)O)c1cnc2cc(C(F)(F)F)ccc2c1O [Compound No. 23, Nα-(4-hydroxy-7-trifluoromethylquinoline-3-carbonyl)-Nε-(4-bromobenzenesulfonyl)-L-lysine] | > 50 |
| O=C(N[C@@H](CCCCNS(=O)(=O)c1ccccc1Br)C(=O)O)OCC1c2ccccc2-c2ccccc21 [Compound No. 24, Nε-(2-bromobenzenesulfonyl)-Nα-(9-fluorenylmcthoxycarbonyl)-L-lysine] | 36 |
| CC(C)c1cc(C(C)C)c(S(=O)(=O)NCCCC[C@H](NC(=O)OCC2c3ccccc3-c3ccccc32)C(=O)O)c(C(C)C)c1 [Compound No. 25, Nε-(2,4,6-triisopropylbenzencsulfonyl)-Nα-(9-fluorenylmethoxycarbonyl)-L-lysine] | > 3.1 |
| Cc1cc(C)c(S(=O)(=O)NCCCC[C@H](NC(=O)OCC2c3ccccc3-c3ccccc32)C(=O)O)c(C)c1 [Compound No. 27, Nε-(2,4,6-trimethylbenzenesulfonyl)-Nα-(9-fluorenylmethoxycarbonyl)-L-lysine] | > 50 |
| O=C(N[C@@H](CCCCNS(=O)(=O)c1cccc2cccnc12)C(=O)O)OCC1c2ccccc2-c2ccccc21 [Compound No. 28, Nε-(8-quinolinesulfonyl)-Nα-(9-fluorenylmethoxycarbonyl)-L-lysine] | 15 |
| O=C(Cc1c[nH]c2ccccc12)N[C@@H](CCCCNS(=O)(=O)c1ccc(Br)cc1)C(=O)O [Compound No. 29, Nα-(3-indoleacetyl)-Nε-(4-bromobenzenesulfonyl)-L-lysine] | 10.5 |
| O=C(CC1c2ccccc2-c2ccccc21)N[C@@H](CCCCNS(=O)(=O)c1ccc(Br)cc1)C(=O)O [Compound No. 30, Nα-(9-fluorenemethylcarbonyl)-Nε-(4-bromobenzenesulfonyl)-L-lysine] | 71 |
| O=C(N[C@@H](CCCCNS(=O)(=O)c1ccc2ccccc2c1)C(=O)O)OCC1c2ccccc2-c2ccccc21 [Compound No. 32, Nε-(2-naphthalenesulfonyl)-Nα-(9-fluorenylmethoxycarbonyl)-L-lysine] | 10 |
